The values that follow come from ChEMBL document CHEMBL3507680, “University of Dundee, Gates Library screen for HepG2 cell viability”.

This data set in a line: Human HepG2 cell viability assay in 384 well format. Type of data set: toxicity, cell-based. Also on record: dose 125 nL, time 70.5 hour; cytotoxicity at 70.5 h: concentration not given beside the values. The following applies: HepG2 cells, read-out: Inhibition.

`O=C(C1CCC1)N1CCC2(CC1)CNCCO2`: the cytotoxicity at 70.5 h was determined as 4.67%.

On to `CCN(CC)c1ccc2ccc(C(=O)N(C)C)cn12`, for which the cytotoxicity at 70.5 h was 8.29%.

In the case of `CCOCC(=O)N1CCCn2c(nnc2Cn2cccc2)C1`, the cytotoxicity at 70.5 h was determined as 3.11%.

Take `CC(=O)N1CCC2(C1)c1ccccc1S(=O)(=O)N2Cc1ccccc1` (stereo not drawn): the cytotoxicity at 70.5 h came to 3.49%.

Regarding `Cc1noc([C@H]2C[C@H]3OCC[C@H]3N(S(C)(=O)=O)C2)n1`, the cytotoxicity at 70.5 h stood at 3.17%.

For `CCS(=O)(=O)N1C[C@H](c2nc(C)no2)C[C@H]2OCC[C@H]21`, the cytotoxicity at 70.5 h turned out to be 5.21%.

In the case of `CCOCC1CN(Cc2ccc3c(c2)OCO3)Cc2nccn2C1` (stereo not drawn), the cytotoxicity at 70.5 h is 0.869%.

For the compound `COc1cc(N2C[C@H]3OCC[C@H]3[C@H](C(=O)N3CCCC3)C2)ncn1`, the cytotoxicity at 70.5 h stood at 27.7%.

As to `NC(=O)N1CC[C@@H]2O[C@H](COCC(=O)N3CCCC3)CC[C@@H]21`, the cytotoxicity at 70.5 h is -0.223%.

For the compound `Cc1csc(CN2CC[C@H]3C[C@@H](c4nc(C)no4)O[C@@H]3C2)n1`, the cytotoxicity at 70.5 h is -7.69%.

`COCCNC(=O)[C@@H]1CN(c2cc(OC)ncn2)C[C@H]2OCC[C@H]21`: the cytotoxicity at 70.5 h was -7.76%.

Take `COCCN1C(=O)C[C@@H]2[C@H]1CCN2C(=O)c1ccc[nH]1`: the cytotoxicity at 70.5 h is -5.24%.

Take `CS(=O)(=O)N1CCOCC2(CCN(C(=O)c3ccco3)CC2)C1`: the cytotoxicity at 70.5 h was -8.61%.

In the case of `Cc1ccc(C(=O)N2CCC3(CC2)COCCN(S(C)(=O)=O)C3)cc1C`, the cytotoxicity at 70.5 h was -6.37%.

Take `Cc1ncsc1CN1C[C@H](C(=O)NC2CCCC2)[C@@H]2CCO[C@@H]2C1`: the cytotoxicity at 70.5 h was -1.79%.

On to `Cc1csc(CN2CC[C@H]3C[C@@H](c4nnc(C)[nH]4)O[C@@H]3C2)n1`, for which the cytotoxicity at 70.5 h came to 0.739%.

In the case of `c1cc(N2CCC3(COCc4cnc(NCC5CC5)nc43)C2)ncn1` (stereo not drawn), the cytotoxicity at 70.5 h was 32.2%.

`COC[C@@]12CCO[C@@H]1CCN(C(=O)c1ccc(F)c(F)c1)C2`: the cytotoxicity at 70.5 h came out at 0.0264%.

For the compound `O=C(c1ccco1)N1CCC[C@]2(C[C@H](Oc3ncccc3F)CO2)C1`, the cytotoxicity at 70.5 h was -1.08%.

With `COC[C@@]12CCO[C@@H]1CCN(C(=O)Cc1cccc(F)c1)C2`, the cytotoxicity at 70.5 h amounted to 2.86%.

With `Cc1nnc(N2CCCC3(CN(Cc4nccn4C)CCO3)C2)o1` (stereo not drawn), the cytotoxicity at 70.5 h was -0.85%.

`CCN1CC2(CC1=O)CN(C(=O)c1ccco1)CCN(C(=O)C(C)C)C2` (stereo not drawn): the cytotoxicity at 70.5 h turned out to be 0.454%.

Consider `c1cc(-c2ccc3c(c2)CCC32CCN(c3nncs3)CC2)co1`, for which the cytotoxicity at 70.5 h is -9.51%.

Consider `c1ccc(CN2CCC3(COCc4cnc(NCC5CC5)nc43)C2)cc1` (stereo not drawn), for which the cytotoxicity at 70.5 h was -3.62%.

As for `Cn1cc(N2CCC3(CCN(C(=O)c4cccn4C)C3)C2=O)cn1` (stereo not drawn), the cytotoxicity at 70.5 h is -6.34%.

As for `Cc1nn(C)cc1Cn1cc(Cl)c(N)n1`, the cytotoxicity at 70.5 h is -1.77%.

With `Cc1cc(OCc2ccc(C(=O)O)s2)ccc1Cl`, the cytotoxicity at 70.5 h was -0.232%.

Turning to `O=C(O)c1ccc(COc2cccc(Cl)c2)s1`, the cytotoxicity at 70.5 h is -5.91%.

In the case of `CCn1nc(C)c(CN2CCNCC2)c1C`, the cytotoxicity at 70.5 h was -5.76%.

Take `Cc1noc2nc(C3CC3)c(Cl)c(C(=O)O)c12`: the cytotoxicity at 70.5 h was -7.07%.

With `Cc1ccc(Cn2nc(C)c3c(C(=O)O)c(Cl)c(C4CC4)nc32)cc1`, the cytotoxicity at 70.5 h is -4.45%.

With `Cc1nn(C)c2nc(C3CC3)c(Cl)c(C(=O)O)c12`, the cytotoxicity at 70.5 h turned out to be 0.618%.

`COC(=O)Cn1c(=O)cc(C(F)F)c2c(C)nn(CC(F)F)c21`: the cytotoxicity at 70.5 h was -8.33%.

On to `Cc1nn(CC(F)F)c2c1c(C(F)F)cc(=O)n2CC(=O)O`, for which the cytotoxicity at 70.5 h is 23.6%.

On to `CCn1ncc(-c2cc(C(F)(F)F)nc(N3CCC(N)CC3)n2)c1C`, for which the cytotoxicity at 70.5 h came out at 8.37%.

For the compound `O=C(O)CCC(=O)Nc1nn(Cc2ccc(F)cc2)cc1Cl`, the cytotoxicity at 70.5 h is 27.9%.

`Cc1nn(COc2cccc(F)c2)c(C)c1NC(=O)C1CC1`: the cytotoxicity at 70.5 h worked out at 2.57%.

With `Cc1c(CCC(=O)Nc2ccc(Br)cn2)cnn1C`, the cytotoxicity at 70.5 h was -5.19%.

As to `Cc1c(CCC(=O)Nc2ccc(Cl)cn2)cnn1C`, the cytotoxicity at 70.5 h was -1.57%.

As for `CCN(CC)C(=O)c1ccn(COc2c(Cl)cccc2Cl)n1`, the cytotoxicity at 70.5 h is -10.4%.

In the case of `CC(C)NC(=O)c1ccn(COc2c(Cl)cccc2Cl)n1`, the cytotoxicity at 70.5 h is -8.01%.

Turning to `CCn1cc(CN(C)S(=O)(=O)c2ccccc2)cn1`, the cytotoxicity at 70.5 h is -6.94%.

As for `Cc1cc(C(=O)NCc2ccco2)nn1C`, the cytotoxicity at 70.5 h is -11.3%.

On to `Cc1ccc(CNC(=O)c2cc(C)n(C)n2)o1`, for which the cytotoxicity at 70.5 h was -8.67%.

As for `CCN(CC)C(=O)c1ccn(COc2cccc(Cl)c2Cl)n1`, the cytotoxicity at 70.5 h was -2.31%.

With `CCn1cc(CNC(=O)C2CCCC2)cn1`, the cytotoxicity at 70.5 h is -17.8%.

On to `CC1CCN(C(=O)C(C)Oc2ccc3c(c2)OCO3)CC1` (stereo not drawn), for which the cytotoxicity at 70.5 h was found to be 8.31%.

On to `CC(C(=O)N1CCOCC1)n1cc(Br)cn1` (stereo not drawn), for which the cytotoxicity at 70.5 h came to 12.3%.

Consider `CC(=O)Nc1ncc(S(=O)(=O)Nc2cccc(F)c2)s1`, for which the cytotoxicity at 70.5 h was -8.84%.

For the compound `COc1ccc(NS(=O)(=O)c2cnc(NC(C)=O)s2)cc1`, the cytotoxicity at 70.5 h was -8.08%.

For the compound `CC(=O)Nc1ncc(S(=O)(=O)Nc2cccc(O)c2)s1`, the cytotoxicity at 70.5 h is -13.4%.

Regarding `CC(=O)Nc1ncc(S(=O)(=O)Nc2ccc3c(c2)OCCO3)s1`, the cytotoxicity at 70.5 h was -7.83%.

On to `Cc1cnc(N2C[C@@H]3[C@@H](C2)OCC(=O)N3CC(C)C)nc1`, for which the cytotoxicity at 70.5 h is 2.16%.

As to `Cc1cccc(S(=O)(=O)N2CC[C@H]3[C@H]2CCN3c2ncccn2)c1`, the cytotoxicity at 70.5 h was -6.57%.

Regarding `Cc1nnc([C@]23COC[C@H]2CN(Cc2cnn(C)c2)C3)o1`, the cytotoxicity at 70.5 h was -4.29%.

As for `O=C(c1cnccn1)N1C[C@@H]2C[C@@H](c3nc(C4CC4)cs3)O[C@@H]2C1`, the cytotoxicity at 70.5 h was -1.34%.

Turning to `COCCN1C2(CCN(CC3CC3)C2)c2ccccc2S1(=O)=O` (stereo not drawn), the cytotoxicity at 70.5 h amounted to 4.8%.

For `Cc1nc(CN2C(=O)COC3(CCN(Cc4ccsc4)CC3)C2C)cs1` (stereo not drawn), the cytotoxicity at 70.5 h was -1.09%.

As for `Cn1cccc1CN1CCC2(CC1)CN(c1ccccc1)C(=O)CO2`, the cytotoxicity at 70.5 h was 2.21%.

On to `Cc1cccc(CN2C[C@@H]3OCCN(c4ccnc(N(C)C)n4)[C@@H]3C2)c1`, for which the cytotoxicity at 70.5 h was 10%.

`CC(C)N(C)Cc1cnc2n1CCN(C(=O)Cc1ccsc1)C2`: the cytotoxicity at 70.5 h was 3.66%.

Consider `O=C(c1cccc(O)c1)N1CCC2(CCN2c2ncccn2)C1` (stereo not drawn), for which the cytotoxicity at 70.5 h is 2.82%.

Consider `O=C(C[C@@H]1COC[C@H]2CN(C(=O)c3ccccn3)C[C@@H]12)N1CCCC1`, for which the cytotoxicity at 70.5 h was 1.42%.

In the case of `O=C1COC2(CCN(Cc3ccoc3)CC2)CN1c1ccccc1`, the cytotoxicity at 70.5 h came out at 5.1%.

`O=C1COC2(CCN(Cc3cccs3)CC2)CN1c1ccsc1`: the cytotoxicity at 70.5 h worked out at 1.63%.

Turning to `COCCNC(=O)[C@H]1CN(Cc2cccs2)C[C@H]2OCC[C@@H]12`, the cytotoxicity at 70.5 h came out at 25.4%.

In the case of `O=C1C[C@H]2[C@@H](CCN2C(=O)c2ccc[nH]2)N1CCN1CCCC1`, the cytotoxicity at 70.5 h is -2.17%.

In the case of `Cn1cc(CN2CCC3(CC2)CCN(C(=O)c2cscn2)C3)cn1`, the cytotoxicity at 70.5 h is -3.37%.

As to `O=C(c1cccnc1)N1CCC2(CC1)COCCN(c1ncccn1)C2`, the cytotoxicity at 70.5 h is -9.03%.

Regarding `O=C(c1ccncn1)N1CCC[C@]2(C[C@H](Oc3ncccc3F)CO2)C1`, the cytotoxicity at 70.5 h is 23.2%.

Take `O=C(c1ncccn1)N1CCC[C@]2(C[C@@H](Oc3ncccc3F)CO2)C1`: the cytotoxicity at 70.5 h was 21.8%.

As to `O=C(Cc1ccsc1)N1C[C@@H]2OCCN(CC3CCCO3)[C@@H]2C1` (stereo partly drawn), the cytotoxicity at 70.5 h was found to be 7.05%.

Consider `COCC(=O)N1C[C@@H]2CCCO[C@@H]2[C@H](N(C)Cc2ccco2)C1`, for which the cytotoxicity at 70.5 h was -3.25%.

Turning to `O=C(Cc1ccccc1)N1C[C@@H]2OCCN(CC3CCCO3)[C@@H]2C1` (stereo partly drawn), the cytotoxicity at 70.5 h was -6.14%.

`O=C(N[C@@H]1CN[C@@H]2CCCO[C@@H]21)c1cscn1`: the cytotoxicity at 70.5 h was -3.45%.

Regarding `CN(Cc1ccco1)[C@@H]1CN(C(=O)c2cnccn2)C[C@@H]2CCCO[C@@H]21`, the cytotoxicity at 70.5 h is -2.85%.

`Cc1cccc(C(=O)N2CCC3(CCN(c4cnn(C)c4)C3=O)C2)n1` (stereo not drawn): the cytotoxicity at 70.5 h is -1.73%.

For `CN(C)S(=O)(=O)N1CCO[C@H]2[C@H](Oc3cccnc3)CC[C@@H]21`, the cytotoxicity at 70.5 h is -3.81%.

Turning to `Cc1cccc(CN2C[C@H]3C[C@H](C(=O)NCc4cccnc4)[C@@H](C2)O3)c1`, the cytotoxicity at 70.5 h stood at 25%.

In the case of `N#Cc1cccc(CN2Cc3nccn3CC(CN3CCCC3)C2)c1` (stereo not drawn), the cytotoxicity at 70.5 h was found to be 0.61%.

With `O=C1COC2(CCN(Cc3cccs3)CC2)CN1c1cccnc1`, the cytotoxicity at 70.5 h was found to be 5.94%.

For the compound `Cc1ccc(N2CCC3(CC2)COCCN(c2nccs2)C3)nn1`, the cytotoxicity at 70.5 h came out at 2.35%.

As for `Cc1nc(CO[C@H]2CN(Cc3cccs3)[C@@H]3COC[C@H]23)cs1`, the cytotoxicity at 70.5 h was -3.05%.

Turning to `Cc1cccc(CN2C[C@H](OCc3csc(C)n3)[C@H]3COC[C@H]32)n1`, the cytotoxicity at 70.5 h was -3.75%.

For `c1cc(CN2CCc3ncc(CN4CCCCC4)n3CC2)cs1`, the cytotoxicity at 70.5 h was determined as 19.1%.

Consider `COCc1nn(C(C)C)c2c1CCN(Cc1ccccn1)C2`, for which the cytotoxicity at 70.5 h was -3.77%.

As to `O=C(c1cccnc1)N1CCC[C@]2(C[C@H](Oc3ncccc3F)CO2)C1`, the cytotoxicity at 70.5 h was determined as 0.397%.

As for `CN1Cc2cnn(CC3CCCC3)c2C(COCC2CC2)C1` (stereo not drawn), the cytotoxicity at 70.5 h is -1.16%.

Turning to `CN1CC(=O)N(c2cccc(F)c2)CC12CCN(Cc1cnn(C)c1)C2` (stereo not drawn), the cytotoxicity at 70.5 h worked out at 4.08%.

For `COCCN1C[C@@H]2[C@@H](OC)CCN(Cc3ccco3)[C@@H]2C1`, the cytotoxicity at 70.5 h was -3.76%.

Regarding `Cc1nnc(N2CCCC3(CN(Cc4cnn(C)c4)CCO3)C2)o1` (stereo not drawn), the cytotoxicity at 70.5 h is -5.09%.

For `Cc1ccc(CN2Cc3c(C(=O)N4CCN(C)CC4)nn(C)c3C2)s1`, the cytotoxicity at 70.5 h is -3.87%.

Consider `COCCN1C[C@@H]2[C@@H](OC)CCN(Cc3ccncc3)[C@@H]2C1`, for which the cytotoxicity at 70.5 h was -0.354%.
